Columns and labels:
[1] = biological target: T1, Full-length human MNK2 (Homo sapiens, UniProt Q9HBH9, T379D); test: MNK2 biochemical IC50 assay (Caliper Mobility Shift Assay)
T1 construct: GST (N); purchased Carna Biosciences 02-146; host or cells: baculovirus expression system

[2] = biological target: AKT1 (Homo sapiens, UniProt P31749); test: Kinase selectivity screen AKT1; conditions: read-out: % inhibition of AKT1
[3] = biological target: PAK1 (Homo sapiens, UniProt Q13153); test: Kinase selectivity screen PAK1; conditions: read-out: % inhibition of PAK1
[4] = biological target: FGFR1 (Homo sapiens, UniProt P11362); test: Kinase selectivity screen FGFR1; conditions: read-out: % inhibition of FGFR1
[5] = biological target: T2, EPHB4 (Homo sapiens, UniProt P54760); test: Kinase selectivity screen EPHB4; conditions: read-out: % inhibition of EPHB4
T2 sequence (P54760 16-987): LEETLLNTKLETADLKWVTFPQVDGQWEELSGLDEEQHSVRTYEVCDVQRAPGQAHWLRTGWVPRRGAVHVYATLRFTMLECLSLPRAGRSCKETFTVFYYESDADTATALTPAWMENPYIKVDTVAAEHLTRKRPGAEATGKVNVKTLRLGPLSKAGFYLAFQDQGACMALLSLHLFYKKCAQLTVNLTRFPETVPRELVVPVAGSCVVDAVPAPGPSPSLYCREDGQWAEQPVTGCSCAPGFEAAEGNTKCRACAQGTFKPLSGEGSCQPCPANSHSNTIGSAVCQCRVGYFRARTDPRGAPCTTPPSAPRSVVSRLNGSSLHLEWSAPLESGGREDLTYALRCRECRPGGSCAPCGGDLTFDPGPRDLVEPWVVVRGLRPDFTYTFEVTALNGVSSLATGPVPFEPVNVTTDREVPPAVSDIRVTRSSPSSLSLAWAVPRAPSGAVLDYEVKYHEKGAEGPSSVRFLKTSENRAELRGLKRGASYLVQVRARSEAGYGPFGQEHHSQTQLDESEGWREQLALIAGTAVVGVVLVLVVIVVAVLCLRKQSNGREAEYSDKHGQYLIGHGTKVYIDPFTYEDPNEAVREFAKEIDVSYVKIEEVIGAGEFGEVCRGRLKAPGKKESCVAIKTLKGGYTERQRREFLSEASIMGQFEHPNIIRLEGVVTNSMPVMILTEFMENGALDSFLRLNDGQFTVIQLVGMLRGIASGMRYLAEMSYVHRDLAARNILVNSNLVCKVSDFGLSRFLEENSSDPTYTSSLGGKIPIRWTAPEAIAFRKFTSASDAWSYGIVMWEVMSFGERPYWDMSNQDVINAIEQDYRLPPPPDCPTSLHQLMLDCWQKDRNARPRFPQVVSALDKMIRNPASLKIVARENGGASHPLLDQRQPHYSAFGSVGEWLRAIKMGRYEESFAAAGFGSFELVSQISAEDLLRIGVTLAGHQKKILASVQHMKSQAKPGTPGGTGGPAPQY

[6] = biological target: T3, CHEK1 (Homo sapiens, UniProt O14757); test: Kinase selectivity screen CHEK1; conditions: read-out: % inhibition of CHEK1
T3 sequence (O14757 1-476): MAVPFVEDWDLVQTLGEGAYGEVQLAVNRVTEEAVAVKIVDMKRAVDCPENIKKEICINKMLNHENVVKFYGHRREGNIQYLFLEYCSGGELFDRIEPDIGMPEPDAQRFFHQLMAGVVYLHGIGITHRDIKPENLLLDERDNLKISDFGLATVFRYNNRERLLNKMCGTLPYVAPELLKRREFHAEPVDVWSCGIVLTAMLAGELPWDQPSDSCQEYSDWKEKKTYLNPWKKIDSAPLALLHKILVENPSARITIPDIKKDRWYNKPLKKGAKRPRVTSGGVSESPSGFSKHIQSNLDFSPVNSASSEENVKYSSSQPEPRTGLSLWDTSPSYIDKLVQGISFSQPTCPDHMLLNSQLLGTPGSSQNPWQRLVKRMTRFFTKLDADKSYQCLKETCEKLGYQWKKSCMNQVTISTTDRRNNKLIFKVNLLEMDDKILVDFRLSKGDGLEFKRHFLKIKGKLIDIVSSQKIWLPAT

[7] = biological target: T4, PIP4K2A (Homo sapiens, UniProt P48426); test: Kinase selectivity screen PIP4K2A; conditions: read-out: % inhibition of PIP4K2A
T4 sequence (P48426 1-406): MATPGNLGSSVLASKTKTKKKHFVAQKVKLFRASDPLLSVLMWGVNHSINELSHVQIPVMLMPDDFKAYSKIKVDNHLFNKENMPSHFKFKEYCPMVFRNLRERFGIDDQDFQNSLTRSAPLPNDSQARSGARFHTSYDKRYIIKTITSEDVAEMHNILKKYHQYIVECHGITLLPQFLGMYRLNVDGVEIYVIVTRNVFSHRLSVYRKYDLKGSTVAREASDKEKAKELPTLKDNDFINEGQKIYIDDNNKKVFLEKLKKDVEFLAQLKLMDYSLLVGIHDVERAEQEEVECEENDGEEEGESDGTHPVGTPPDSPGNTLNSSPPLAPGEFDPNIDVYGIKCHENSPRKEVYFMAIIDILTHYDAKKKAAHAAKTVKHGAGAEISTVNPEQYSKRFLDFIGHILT

Chain of AKT1 (P31749 whole entry, species assumed): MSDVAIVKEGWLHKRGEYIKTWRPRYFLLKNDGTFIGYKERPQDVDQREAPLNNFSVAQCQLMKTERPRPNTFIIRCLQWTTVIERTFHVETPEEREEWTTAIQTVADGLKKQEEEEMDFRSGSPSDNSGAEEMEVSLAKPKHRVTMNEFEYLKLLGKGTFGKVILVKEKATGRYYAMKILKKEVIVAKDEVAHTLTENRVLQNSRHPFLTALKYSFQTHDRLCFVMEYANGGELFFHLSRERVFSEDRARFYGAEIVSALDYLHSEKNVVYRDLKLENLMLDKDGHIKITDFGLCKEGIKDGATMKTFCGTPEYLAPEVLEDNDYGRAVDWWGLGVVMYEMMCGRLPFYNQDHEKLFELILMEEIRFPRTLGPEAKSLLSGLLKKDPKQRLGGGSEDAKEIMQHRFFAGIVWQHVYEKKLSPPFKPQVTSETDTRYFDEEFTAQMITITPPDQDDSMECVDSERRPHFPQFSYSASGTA
Chain of PAK1 (Q13153 whole entry): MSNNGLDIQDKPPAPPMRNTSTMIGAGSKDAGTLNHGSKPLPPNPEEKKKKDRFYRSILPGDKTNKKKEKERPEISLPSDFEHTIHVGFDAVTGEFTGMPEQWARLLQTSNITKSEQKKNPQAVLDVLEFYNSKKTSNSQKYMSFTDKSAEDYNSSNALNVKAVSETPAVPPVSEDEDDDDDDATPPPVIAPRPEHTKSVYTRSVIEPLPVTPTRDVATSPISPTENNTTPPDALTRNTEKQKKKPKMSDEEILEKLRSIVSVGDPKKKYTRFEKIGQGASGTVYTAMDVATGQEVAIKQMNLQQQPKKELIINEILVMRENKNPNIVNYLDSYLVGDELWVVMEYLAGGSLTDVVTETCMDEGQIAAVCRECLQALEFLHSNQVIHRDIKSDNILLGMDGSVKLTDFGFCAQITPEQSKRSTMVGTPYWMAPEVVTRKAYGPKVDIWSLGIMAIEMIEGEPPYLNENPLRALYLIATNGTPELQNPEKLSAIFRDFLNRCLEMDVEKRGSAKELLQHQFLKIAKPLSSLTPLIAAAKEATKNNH
T1 sequence (Q9HBH9 whole entry T379D): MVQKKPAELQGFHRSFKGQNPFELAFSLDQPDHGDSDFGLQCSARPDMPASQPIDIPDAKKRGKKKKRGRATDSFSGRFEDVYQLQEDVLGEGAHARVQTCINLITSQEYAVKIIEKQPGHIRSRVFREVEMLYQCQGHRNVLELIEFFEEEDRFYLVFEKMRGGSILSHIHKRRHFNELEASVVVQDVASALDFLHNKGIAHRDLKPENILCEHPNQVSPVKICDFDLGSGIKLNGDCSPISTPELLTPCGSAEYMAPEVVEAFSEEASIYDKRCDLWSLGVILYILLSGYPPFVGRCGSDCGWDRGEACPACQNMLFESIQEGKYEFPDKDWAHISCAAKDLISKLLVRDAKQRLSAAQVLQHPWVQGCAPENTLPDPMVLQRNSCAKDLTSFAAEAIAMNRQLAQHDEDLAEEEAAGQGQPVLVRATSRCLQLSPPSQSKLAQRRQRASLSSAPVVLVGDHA
Chain of FGFR1 (P11362 22-822, species assumed): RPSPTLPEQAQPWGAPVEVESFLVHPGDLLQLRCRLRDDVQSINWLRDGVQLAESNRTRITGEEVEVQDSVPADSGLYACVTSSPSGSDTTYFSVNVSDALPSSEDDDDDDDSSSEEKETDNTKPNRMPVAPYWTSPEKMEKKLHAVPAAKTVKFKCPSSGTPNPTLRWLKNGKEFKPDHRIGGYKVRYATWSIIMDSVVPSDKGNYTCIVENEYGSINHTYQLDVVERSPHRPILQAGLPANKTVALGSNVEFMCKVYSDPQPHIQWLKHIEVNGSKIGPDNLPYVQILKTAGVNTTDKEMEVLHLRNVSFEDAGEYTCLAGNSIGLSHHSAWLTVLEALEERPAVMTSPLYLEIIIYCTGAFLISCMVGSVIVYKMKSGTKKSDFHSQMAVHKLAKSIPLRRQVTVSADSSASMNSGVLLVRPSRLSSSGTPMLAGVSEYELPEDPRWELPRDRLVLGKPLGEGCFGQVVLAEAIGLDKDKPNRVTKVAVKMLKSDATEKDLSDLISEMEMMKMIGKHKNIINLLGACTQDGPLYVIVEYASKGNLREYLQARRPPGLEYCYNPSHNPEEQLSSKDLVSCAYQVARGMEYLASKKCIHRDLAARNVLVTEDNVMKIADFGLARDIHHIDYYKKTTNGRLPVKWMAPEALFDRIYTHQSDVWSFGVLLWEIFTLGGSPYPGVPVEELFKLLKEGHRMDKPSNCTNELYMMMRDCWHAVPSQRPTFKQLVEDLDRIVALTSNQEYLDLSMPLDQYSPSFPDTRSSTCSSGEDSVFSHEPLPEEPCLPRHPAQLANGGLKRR

| Compound | IC50 [1] | inhibition at 1 µM [2] | inhibition at 1 µM [3] | inhibition at 1 µM [4] | inhibition at 1 µM [5] | inhibition at 1 µM [6] | inhibition at 1 µM [7] |
| --- | --- | --- | --- | --- | --- | --- | --- |
| CN(C)CCCNC(=O)c1nc2c(N3CCc4cc(F)ccc43)ncnc2s1 [Example 64, N-[3-(dimethylamino)propyl]-7-(5-fluoroindolin-1-yl)thiazolo[5,4-d]pyrimidine-2-carboxamide] | 2 nM | 0% | 0% | 2% | 8% | 35% | 0% |
| CC(C)Oc1cc(F)ccc1Nc1ncnc2sc(C(=O)NCC3CCNCC3)nc12 [Example 10, 7-(4-fluoro-2-isopropoxy-anilino)-N-(4-piperidylmethyl)thiazolo[5,4-d]pyrimidine-2-carboxamide] | 50.1 nM | 0% | 0% | 1% | 4% | 0% | 12% |
| O=C(NCC1CCNCC1)c1nc2c(N3CCc4cc(F)ccc43)ncnc2s1 [Example 58, 7-(5-fluoroindolin-1-yl)-N-(4-piperidylmethyl)thiazolo[5,4-d]pyrimidine-2-carboxamide] | 3.98 nM | 0% | 9% | 0% | 0% | 6% | 7% |

From patent US10669284B2, “Fused thiazolopyrimidine derivatives as MNKS inhibitors” (LIFEARC, priority 2015, dated 2020)
